Experimental data as given in ChEMBL document CHEMBL3745634, “Synthesis, cyclooxygenase inhibition, anti-inflammatory evaluation and ulcerogenic liability of new 1,3,5-triarylpyrazoline and 1,5-diarylpyrazole derivatives as selective COX-2 inhibitors” (Bioorg Med Chem Lett, 2016).
Active and inactive are the calls of the source. The rule behind the calls is not given here.

Columns and labels:
Rattus norvegicus [1] = assay: Ulcerogenic activity in po dosed formalin-induced rat foot paw edema model assessed as ulcer index at antiinflammatory ED50; format: toxicity, organism-based; details: in vivo
[2] = target: T1, Prostaglandin G/H synthase 1 (Ovis aries, UniProt P05979); assay: Inhibition of ovine COX1 by enzyme immuno assay
T1 sequence (P05979 whole entry): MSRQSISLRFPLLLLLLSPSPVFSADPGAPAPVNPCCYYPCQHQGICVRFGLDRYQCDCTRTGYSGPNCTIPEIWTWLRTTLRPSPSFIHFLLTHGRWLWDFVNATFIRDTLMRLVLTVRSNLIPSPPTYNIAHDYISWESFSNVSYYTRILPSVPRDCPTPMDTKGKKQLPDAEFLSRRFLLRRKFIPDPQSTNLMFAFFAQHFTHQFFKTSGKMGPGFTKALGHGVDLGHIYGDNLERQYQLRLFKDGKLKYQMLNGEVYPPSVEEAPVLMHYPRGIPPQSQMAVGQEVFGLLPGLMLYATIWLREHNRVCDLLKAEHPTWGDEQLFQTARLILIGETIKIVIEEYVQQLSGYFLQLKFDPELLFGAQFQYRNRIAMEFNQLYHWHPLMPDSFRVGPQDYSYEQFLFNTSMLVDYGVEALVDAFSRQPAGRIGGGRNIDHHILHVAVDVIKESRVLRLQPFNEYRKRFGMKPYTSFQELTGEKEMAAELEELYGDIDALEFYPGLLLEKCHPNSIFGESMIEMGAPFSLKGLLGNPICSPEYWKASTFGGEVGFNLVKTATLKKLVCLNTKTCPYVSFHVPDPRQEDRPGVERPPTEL

Rattus norvegicus [3] = assay: Antiinflammatory activity in po dosed formalin-induced rat foot paw edema model assessed as paw thickness after 3 hrs; format: functional
Rattus norvegicus [4] = assay: Ulcerogenic activity in formalin-induced rat foot paw edema model assessed as ulcer index at 120 umol/kg, po; format: toxicity, organism-based; details: in vivo

SMILES	IC50 [2]	UI (Rattus norvegicus [1])	ED50 (Rattus norvegicus [3])	UI (Rattus norvegicus [4])
CC(C)Cc1ccc(C(C)C(=O)O)cc1 (configuration not stated) [IBUPROFEN]			499 µmol/kg	20.25
NS(=O)(=O)c1ccc(N2N=C(c3ccco3)CC2c2ccccc2)cc1 (configuration not stated)	10.2 µM	4.6	238 µmol/kg	
NS(=O)(=O)c1ccc(N2N=C(c3cccs3)CC2c2ccco2)cc1 (configuration not stated)	14.6 µM	4.15	209 µmol/kg	
COc1cc(C2CC(c3cccs3)=NN2c2ccc(S(N)(=O)=O)cc2)cc(OC)c1OC (configuration not stated)	13.4 µM		382 µmol/kg	
Cc1ccc(-c2cc(C(F)(F)F)nn2-c2ccc(S(N)(=O)=O)cc2)cc1 [CELECOXIB]		2.9	47 µmol/kg	
COc1ccc(C2CC(c3cccs3)=NN2c2ccc(S(N)(=O)=O)cc2)cc1 (configuration not stated)	11.7 µM	2.97	204 µmol/kg	
NS(=O)(=O)c1ccc(N2N=C(c3cccs3)CC2c2cccs2)cc1 (configuration not stated)	16.4 µM	2.7	144 µmol/kg	

The remaining compounds from weak to strong by IC50 [2], led by results:

IC50 [2]	SMILES	UI (Rattus norvegicus [1])	ED50 (Rattus norvegicus [3])	UI (Rattus norvegicus [4])
12.3 µM	NS(=O)(=O)c1ccc(N2N=C(c3ccco3)CC2c2cccs2)cc1 (configuration not stated)	3.03	469 µmol/kg	
9.65 µM	NS(=O)(=O)c1ccc(N2N=C(c3ccco3)CC2c2ccco2)cc1 (configuration not stated)	1.2	383 µmol/kg	
8.71 µM	NS(=O)(=O)c1ccc(N2N=C(c3cccs3)CC2c2ccc(Cl)cc2)cc1 (configuration not stated)	2.82	197 µmol/kg	
7.36 µM	COc1cc(C2CC(c3ccco3)=NN2c2ccc(S(N)(=O)=O)cc2)cc(OC)c1OC (configuration not stated)	2.7	179 µmol/kg	
6.74 µM	COc1ccc(C2CC(c3ccco3)=NN2c2ccc(S(N)(=O)=O)cc2)cc1 (configuration not stated)	3.13	232 µmol/kg	
5.74 µM	NS(=O)(=O)c1ccc(N2N=C(c3cccs3)CC2c2ccc(C(F)(F)F)cc2)cc1 (configuration not stated)	3.8	99 µmol/kg	
4.66 µM	NS(=O)(=O)c1ccc(N2N=C(c3ccco3)CC2c2ccc(Cl)cc2)cc1 (configuration not stated)	4.12	404 µmol/kg	
2.14 µM	NS(=O)(=O)c1ccc(N2N=C(c3ccco3)CC2c2ccc(C(F)(F)F)cc2)cc1 (configuration not stated)	1.2	inactive	
